This note sets out measurements from US10617772B2, “Hsp9O-targeted inflammation and infection imaging and therapy” (Memorial Sloan Kettering Cancer Center, priority 2014, dated 2020).

SMILES strings stand for the structures.

The test system of data set [1] is inflammatory pulmonary consolidation. Nature of the data set: I-124 PUH71 PET-CT, tracer mixed with a therapeutic dose of non-radioactive PUH71 (FIGS. 3-4). It counts as in vivo, human. Here is the method: (§1) Positron emission tomography (PET) combined with X-ray computed tomography (CT) was performed using a state of the art integrated PET-CT scanner (Discovery DSTE™ General Electric). CT scans for attenuation correction and anatomic coregistration were performed prior to tracer-injection, using the following acquisition parameters: 140 kVp; 85 mA; pitch of 1.75:1; reconstructed slice thickness of 3.75 mm; 0.8 s per rotation. The CT protocol was designed for anatomic localization of tracer-signal and for attenuation correction, while minimizing radiation exposure. Each patient received ˜185 megabecquerel (MBq) [^124I]-PU-H71 by peripheral vein over two minutes. PET emission scans were acquired in two-dimensional mode starting at the mid-thighs moving toward the head, for 7.5 minutes per PET bed position. PET data were reconstructed using a standard ordered subset expected maximization iterative algorithm. Emission data were corrected for scatter, attenuation and decay. Clinical FDG PET-CT studies were performed according to standard methods using state of the art PET-CT scanners. [^124I]-PU-H71 scans were performed at 3-4 hrs, 20-24 hrs, 48-72 hours and, optionally, ˜168 hrs after tracer administration on the microdose [^124I]-PU-H71 PET-CT study.
PU-PET images were taken 1.5, 4, 24 and 48-72 hrs after co-administration on the tracer mixed with a therapeutic dose of non-radioactive PUH71 in a total volume of […], co-infused intravenously over one hour. Patient were treated with PU-H71 at escalating dose levels determined by a modified continuous reassessment model. Each patient is treated with his or her assigned dose on day 1, 4, 8 and 11 of each 21 day cycle. Pre- and post-treatment biopsies were collected for correlative studies including LCMSMS quantification of PU-H71, with the latter obtained within 24 hours of their cycle 1, day 1 dose of PU-H71.

Data set [2] deals with inflammatory pulmonary infiltrate. Nature of the data set: I-124 PUH71 PET-CT, microdose study in patients (FIGS. 1-2). Type of data set: in vivo, human. As to conditions: person with ovarian cancer; PET-CT 24 hours after intravenous injection of 9.3 mCi. As for the experimental part:
as §1

The mark [3] stands for this setting: person with breast cancer, 6.5 mCi mixed with 35 mg non-radioactive PUH71, PET.

In the case of `CC(C)NCCCn1c(Sc2cc3c(cc2I)OCO3)nc2c(N)ncnc21` [PUH71], the “uptake relative to surrounding healthy tissues” value in data set [1] (diseased tissue, patients, PET) was “high uptake”. Also, in data set [1] (patients, PET), the blood clearance result is “rapid blood clearance” and the “retention in the diseased tissue” value is recorded as “sustained retention”. For the same compound, in data set [1] (two weeks after imaging, PUH71 35 mg twice a week for two weeks per three week cycle, together with antibiotic treatment and pleural fluid drainage), the “outcome of pulmonary consolidation on CT scan” value is reported as “pulmonary consolidation had resolved”.
As for `CC(C)NCCCn1c(Sc2cc3c(cc2[124I])OCO3)nc2c(N)ncnc21` [I-124 PUH71], in data set [1] (setting [3]), the “clearance of tracer from blood stream (void of activity within the cardiac atrium)” value is on record as “cleared from blood stream” and the “tracer retention in left ventricle myocardium” value is given as “distinct tracer retention”. In data set [1] (person with breast cancer, 6.5 mCi mixed with 35 mg non-radioactive PUH71, immediately, 4 hours and 24 hours post-injection), the “accumulation and retention of tracer in inflammatory pulmonary consolidation (right lung)” value is “distinct accumulation and sustained retention”. In data set [2], the “accumulation of tracer in inflammatory pulmonary infiltrate (apex of left lung)” value is reported as “distinct accumulation”.
